Measured values taken from patent US11679097B2, “Combination product containing limonoid compound and biguanide compound” (ZHEJIANG YANGSHENGTANG INSTITUTE OF NATURAL MEDICATION CO., …, priority 2017, dated 2023).

Legend:
Assay type in all cases: in vivo
[1] = system: STZ mice; assay: Blood glucose in mouse model of type II diabetes with pancreatic islet damage and obesity (Example 5); details: high-fat diet + STZ ICR mice; single administration 0.5 g/kg per day by gavage, three weeks
Protocol: (§1) It should be noted that the conditions for raising the mice were as follows: the temperature was 23±1° C., the humidity was 55±10%, the lights were turned on between 7 am and 7 pm (the lights were turned off at other time), and the mice were allowed to access to water and feed freely. The experimental feed was mouse growth-stable feed (GB M2118), and the daily feeding and management of the animals were under the responsibility of the animal security department, which provided the animals with sufficient padding and fresh drinking water daily.
SPSS 16.0 software was used for statistical analysis.

[2] = system: db/db mice; assay: Blood glucose and insulin in mouse model of type II diabetes (Example 4); details: single administration 0.2 g/kg per day by gavage, two weeks
Source text: Effects of a Limonoid Compound, Metformin or a Combination Thereof on Blood Glucose and Insulin in a Mouse Model of Type II Diabetes
In the present embodiment, the limonoid compound selected nomilin, deacetylnomilin, nomilin acid, deactylnomilin 17-β-D-glucopyranoside, and a nomilin single administration group, deacetylnomilin single administration group, nomilin acid single administered group, deactylnomilin 17-β-D-glucopyranoside single administration group, and combination thereof with metformin administration groups were set, respectively.
as §1, with “Conditions for experimental feeding: as type II diabetes model mice, 6-week-old SPF-grade db/db mice were purchased from the Nanjing Model Biology Institute, and subjected to experimental feeding after 7 days of preliminary feeding. It” for “It”
Experimental grouping: male db/db mice (20±2 g) were selected, 18 male mice in each group were tested, and drinking bottles were sterilized weekly. The experimental groups included the normal control group (db/m, n=18), the model group (db/db, n=18), the nomilin group (db/db, n=18), the deacetylnomilin group (db/db, n=18), the nomilin acid group (db/db, n=18), the deactylnomilin 17-β-D-glucopyranoside group (db/db, n=18), the metformin group (db/db, n=18), the nomilin/metformin combination group (db/db, n=18), the deacetylnomilin/metformin combination group (db/db, n=18), the nomilin acid/metformin combination group (db/db, n=18), the deactylnomilin 17-β-D-glucopyranoside/combination group (db/db, n=18).
Gavage doses: nomilin at a dose of 0.2 g/kg was gavaged per day for the nomilin group, deacetylnomilin at a dose of 0.2 g/kg was gavaged per day for the deacetylnomilin group, nomilin acid at a dose of 0.2 g/kg was gavaged per day for the nomilin acid group, deacetylnomilin […] at a dose of 0.2 g/kg was gavaged per day for the deactylnomilin glucopyranoside group, metformin at a dose of 0.2 g/kg was gavaged per day for the metformin group, nomilin at a dose of 0.1 g/kg and metformin at a dose of 0.1 g/kg were simultaneously gavaged per day for the nomilin/metformin combination group, nomilin acid at a dose of 0.1 g/kg and metformin at a dose of 0.1 g/kg were simultaneously gavaged per day for the nomilin acid/metformin combination group, deacetylnomilin at a dose of 0.1 g/kg and metformin at a dose of 0.1 g/kg were simultaneously gavaged per day for the deacetylnomilin/metformin combination group, deactylnomilin 17-β-D-glucopyranoside at a dose of 0.1 g/kg and metformin at a dose of 0.1 g/kg were simultaneously gavaged per day for the deactylnomilin 17-β-D-glucopyranoside/metformin combination group, the gavage volume was 10 mL/kg, and the normal group and the model group were administrated with 10 mL/kg of distilled water. Two weeks later, the blood glucose values were measured by tail trimming method (Johnson's blood glucose meter) 1 h after the last administration, and serum insulin levels were measured with blood collected from orbital cavity by enzyme-linked immunosorbent assay (Elisa), and the average of each group was obtained. SPSS 16.0 software was used for statistical analysis. The data were expressed as mean and standard deviation. The data before and after were analyzed by t-test, and P<0.05 was considered statistically significant.

[3] = system: STZ mice; assay: Blood glucose in mouse pancreatic islet β-cell injury model (Example 3); details: STZ ICR mice; single administration 0.1 g/kg per day by gavage, two weeks; 1 h after last administration
Source text: Effects of a Limonoid Compound, Metformin or a Combination Thereof on Blood Glucose in a Mouse Pancreatic Islet β-Cell Injury Model In this example, a mouse pancreatic islet β-cell injury model was established by modeling ICR mice with streptozotocin (STZ) (referred to the prior art literature: Li Nan et al., Protective effect of pine pollen on kidney damage in diabetic nephropathy mice, Science and Technology Review, 2014, 32 (4/5): 95-99), and used to complete the evaluation of hypoglycemic effect in animals (this model could simulate pancreatic islet β-cell damage state of type I and type II diabetics). […] Conditions of experimental feeding: ICR mice (20±2 g), aged 6 weeks, purchased from Zhejiang Academy of Medical Sciences, and subjected to experimental feeding after 7 days of preliminary feeding. […] The experimental feed was mouse growth-stable feed (GB […]), and the daily feeding and management of the animals were under the responsibility of the animal security department, which provided the animals with sufficient padding and fresh drinking water daily. Experimental grouping: 15 male mice were randomly selected as the normal control group. […] Gavage doses: the gavage dose was 0.1 g/kg per day for the […] group, the gavage dose was 0.1 g/kg per day for the […] group, the gavage dose was 0.1 g/kg per day for the […]-glucopyranoside group, the gavage dose of metformin was 0.1 g/kg per day for the metformin group, […] dose of 0.05 g/kg and metformin at a dose of 0.05 g/kg were simultaneously gavaged per day for the […]/metformin combination group, […] dose of 0.05 g/kg and metformin at a dose of 0.05 g/kg were simultaneously gavaged per day for the […]/metformin combination group, […]-glucopyranoside at a dose of 0.05 g/kg and metformin at a dose of 0.05 g/kg were simultaneously gavaged per day for the […]-glucopyranoside/metformin combination group, the gavage volume was 10 mL/kg, and the normal group and the model group were administrated with 10 mL/kg of distilled water. […] SPSS 16.0 software was used for statistical analysis. The data were expressed as mean and standard deviation. The data before and after were analyzed by t-test, and P<0.05 was considered statistically significant.

Compound	Blood glucose value [1]	Blood glucose value [3]	other results
nomilin 17-β-D-glucopyranoside	12.8 ± 2.9 mmol/L		
deactylnomilin 17-β-D-glucopyranoside	12.7 ± 2.5 mmol/L		Insulin ([2]; serum, Elisa): 8.40 ± 3.27 pg/mL; Blood glucose value ([2]; 1 h after last administration): 12.8 ± 5.5 mmol/L
CC1(C)O[C@](C)(O)[C@]2(C)[C@H]3CC[C@@]4(C)[C@H](c5ccoc5)OC(=O)[C@H]5O[C@]54[C@]3(C)C(=O)C[C@@H]12 [Ichangensin, ichangensin]		14.5 ± 3.5 mmol/L	
ichangin 17-β-D-glucopyranoside		14.9 ± 2.1 mmol/L	
nomilinic acid 17-β-D-glucopyranoside	13.5 ± 2.4 mmol/L		
CC(C)(O)[C@@H]1CC(=O)[C@]2(C)[C@H](CC[C@@]3(C)[C@H](c4ccoc4)OC(=O)[C@H]4O[C@]432)[C@]12COC(=O)C[C@@H]2O [Ichangin, ichangin]		14.8 ± 1.9 mmol/L	
